Reference: US11518758B2, “Heteroarylaminopyrimidine amide autophagy inhibitors and methods of use thereof” (Deciphera Pharmaceuticals, LLC, priority 2019, dated 2022)

Tests used:
ULK1 kinase [1] = molecular target: T1, ULK1 kinase (Homo sapiens, UniProt O75385); assay: Biochemical assay for ULK1.2 (coupled pyruvate kinase/lactate dehydrogenase assay); conditions: 19 nM ULK1 (Eurofins), myelin basic protein, 1 mM ATP
T1 construct: purchased Eurofins 14-959
T1 sequence (O75385 with tags, fused parts or gaps): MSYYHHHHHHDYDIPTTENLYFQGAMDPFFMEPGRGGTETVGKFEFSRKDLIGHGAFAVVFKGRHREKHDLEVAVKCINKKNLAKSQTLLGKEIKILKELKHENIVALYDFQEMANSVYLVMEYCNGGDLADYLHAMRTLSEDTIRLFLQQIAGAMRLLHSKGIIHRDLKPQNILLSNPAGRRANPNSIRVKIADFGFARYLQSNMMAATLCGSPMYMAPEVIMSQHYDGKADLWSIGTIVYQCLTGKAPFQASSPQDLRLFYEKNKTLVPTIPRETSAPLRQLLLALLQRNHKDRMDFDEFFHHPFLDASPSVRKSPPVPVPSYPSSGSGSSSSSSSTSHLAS
Outline: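 NADH-coupled PK/LDH read-out at 340 nm, run with 19 nM ULK1, 0.25 mg/mL myelin basic protein and 1 mM ATP. Buffer was 100 mM Tris pH 7.5 with 15 mM MgCl2 and 1% DMSO final. Monitoring was continuous for 6 hours at 30° C; rates from the 2-3 h window were converted to percent inhibition and fitted to a four-parameter curve for IC50.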

[2] = system: phospho-Serine 318 ATG13 (pATG13), ULK kinase substrate, in A549 (KRAS mutant) cells; assay: pATG13 levels of mutant KRas A549 cells after treatment with ULK inhibitors in combination with trametinib (ELISA); assay type: cell-based, human; conditions: with 250 nM trametinib
Outline: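 A549 cells grown overnight were treated overnight at 37 °C with a dose response of test compound plus 250 nM trametinib (final) or DMSO. Lysates were assayed by sandwich ELISA, with total ATG13 capture and biotinylated pS318-ATG13 detection read at 450 nm minus 540 nm, giving % phosphorylation against control and IC50.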

ULK2 kinase = molecular target: T2, ULK2 kinase (Homo sapiens, UniProt Q8IYT8); assay: Biochemical assay for ULK2 (coupled pyruvate kinase/lactate dehydrogenase assay); conditions: 9.7 nM ULK2 (Eurofins), myelin basic protein, 1 mM ATP; read-out: ULK2.2
T2 construct: purchased Eurofins 14-772
T2 sequence (Q8IYT8 with tags, fused parts or gaps): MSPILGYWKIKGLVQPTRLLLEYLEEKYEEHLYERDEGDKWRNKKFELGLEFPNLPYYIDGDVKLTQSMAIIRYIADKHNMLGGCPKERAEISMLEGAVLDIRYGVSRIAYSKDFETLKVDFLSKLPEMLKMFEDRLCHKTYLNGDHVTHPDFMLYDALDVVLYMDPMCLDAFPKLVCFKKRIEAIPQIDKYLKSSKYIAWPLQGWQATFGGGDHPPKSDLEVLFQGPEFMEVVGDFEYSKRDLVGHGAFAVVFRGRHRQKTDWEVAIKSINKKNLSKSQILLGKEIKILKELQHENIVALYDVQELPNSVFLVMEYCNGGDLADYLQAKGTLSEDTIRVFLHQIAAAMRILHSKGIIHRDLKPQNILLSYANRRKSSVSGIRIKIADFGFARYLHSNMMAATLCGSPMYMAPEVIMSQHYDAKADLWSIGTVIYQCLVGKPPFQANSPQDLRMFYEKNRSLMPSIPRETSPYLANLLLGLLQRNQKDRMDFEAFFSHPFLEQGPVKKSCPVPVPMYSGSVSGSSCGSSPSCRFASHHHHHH
Procedure: Example 176. Biochemical Assay for ULK2
Activity of ULK2 kinase was determined spectroscopically using a coupled pyruvate kinase/lactate dehydrogenase assay that continuously monitors the ATP hydrolysis-dependent oxidation of NADH (e.g., Schindler et al. Science (2000) 289: 1938-1942). Assays were conducted in 384-well plates (100 uL final volume) using 9.7 nM ULK2 (Eurofins CAT #14-772), 0.25 mg/mL myelin basic protein, 1.5 units pyruvate kinase, 2.1 units lactate dehydrogenase, 1 mM phosphoenol pyruvate, 0.28 mM NADH and 1 mM ATP in assay buffer (100 mM Tris, pH 7.5, 15 mM MgCl2, 0.5 mM DTT, 0.1% octyl-glucoside, 0.002% (w/v) BSA, and 0.002% Triton X-100). Inhibition of ULK2 was measured by adding serial diluted test compound (final assay concentration of 1% DMSO). A decrease in absorption at 340 nm was monitored continuously for 6 hours at 30° C. on a multi-mode microplate reader (BioTek). The reaction rate was calculated using the 2-3 h time frame. The reaction rate at each concentration of compound was converted to percent inhibition using controls (i.e. reaction with no test compound and reaction with a known inhibitor) and IC50 values were calculated by fitting a four-parameter sigmoidal curve to the data using Prism (GraphPad software).

[3] = system: phospho-Serine 318 ATG13 (pATG13) in HCT-116 cells; assay: pATG13 levels of mutant KRas HCT-116 cells after treatment with ULK inhibitors in combination with trametinib (ELISA); assay type: cell-based, human
Procedure: Example 179. pATG13 Levels of Mutant KRas HCT-116 Cells after Treatment with ULK Inhibitors in Combination with Trametinib
(§1) HCT-116 human colon cancer cells (10000 cells/well) were added to a 384-well tissue-culture treated plate in 50 μL of pre-warmed DMEM medium supplemented with 10% characterized fetal bovine serum (Invitrogen, Carlsbad, Calif.), 100 units/mL penicillin G, and 100 μg/mL streptomycin and allowed to grow overnight at 37° C., 5% CO2, and 95% humidity. The following day, 10 μL of media containing trametinib or DMSO as a control was added to wells. The final concentration of trametinib in wells was 250 nM. A dose response of a test compound (0.6 μL per well) was added. DMSO (0.6 μL) was added to control wells. The plate was briefly shaken to mix wells and then incubated at 37° C. overnight. The next day, the media was aspirated and cells were washed with Dulbecco's Phosphate Buffered Saline (Gibco). Cells were lysed using MPER lysis buffer (Pierce, Rockford, Ill.) containing Halt Phosphatase and Protease Inhibitors (Pierce, Rockford, Ill.) and Phosphatase inhibitor cocktail 2 (Sigma, St. Louis, Mo.) at 4° C. for 10 minutes with shaking.
(§2) Cellular levels of phospho-Serine 318 ATG13 (pATG13) were measured via an ELISA method. Total ATG13 Antibody (Cell Signaling Cat #13273) was used to coat the wells. The plate was incubated at 4° C. overnight and washed with ELISA wash buffer (Biolegend Cat #421601). The wells were then blocked with assay diluent (Biolegend Cat #421203) for 1 hour at room temperature. Plate wells were washed with ELISA wash buffer. Cell lysate was added to wells and incubated at room temperature for 2 hours. Plate wells were washed with ELISA wash buffer. Biotinylated pS318-ATG13 antibody (Rockland Immunochemicals Cat #600-401-C49) was diluted in assay diluent and added to each well and incubated at room temperature for 1 hour. Plate wells were washed with ELISA wash buffer. Streptavidin linked to horseradish peroxidase (Thermo Fisher Cat #21140) was diluted in assay diluent and added to each well and incubated at room temperature for 1 hour. Plate wells were washed with ELISA wash buffer. High sensitivity TMB substrate (Biolegend Cat #421101) was added to each well and incubated at room temperature for 20 minutes. The reaction was stopped with 2N Sulfuric Acid. The plate was analyzed at on a plate reader measuring absorbance at 450 nm and 540 nm (background). Signal was calculated by first subtracting the background absorbance at 540 nm from the absorbance at 450 nm for each well. Next, the background corrected absorbance at 450 nm from blank wells was subtracted from test wells. Data was compared to control wells to determine % ATG13 phosphorylation. GraphPad Prism was used to calculate IC50 values.

[4] = system: phospho-Serine 318 ATG13 (pATG13) in MiaPaCa-2 cells; assay: pATG13 levels of mutant KRas MiaPaCa-2 cells after treatment with ULK inhibitors in combination with trametinib (ELISA); assay type: cell-based, human
Procedure: Example 178. pATG13 Levels of Mutant KRas MiaPaCa-2 Cells after Treatment with ULK Inhibitors in Combination with Trametinib
as §1, with “MiaPaCa-2” for “HCT-116”, “pancreatic” for “colon”, “G,” for “G, and”, “streptomycin, and 2.5% Horse Serum” for “streptomycin”
as §2

ULK1 kinase [5] = molecular target: T3, ULK1 kinase (Homo sapiens, UniProt O75385, E37A/K38A); assay: Biochemical assay for ULK1.3 (coupled pyruvate kinase/lactate dehydrogenase assay); conditions: 0.1 nM ULK1 (from Beryllium), peptide substrate, 1 mM ATP
T3 construct: (residues 1-283; ID NO: 2); purchased Beryllium
T3 sequence (O75385 1-283 E37A/K38A): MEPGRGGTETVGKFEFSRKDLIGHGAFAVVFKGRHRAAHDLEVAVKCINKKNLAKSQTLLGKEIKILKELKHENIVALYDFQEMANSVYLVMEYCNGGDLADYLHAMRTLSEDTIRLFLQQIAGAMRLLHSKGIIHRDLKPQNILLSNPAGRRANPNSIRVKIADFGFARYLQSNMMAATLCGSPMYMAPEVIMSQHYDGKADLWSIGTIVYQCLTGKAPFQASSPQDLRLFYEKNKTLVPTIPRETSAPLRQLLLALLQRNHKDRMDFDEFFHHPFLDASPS
Procedure: Example 175. Biochemical Assay for ULK1.3
Activity of ULK1 kinase was determined spectroscopically using a coupled pyruvate kinase/lactate dehydrogenase assay that continuously monitors the ATP hydrolysis-dependent oxidation of NADH (e.g., Schindler et al. Science (2000) 289: 1938-1942). Assays were conducted in 384-well plates (100 uL final volume) using 0.1 nM ULK1 (from Beryllium), 0.075 mM peptide substrate (YANWLAASIYLDGKKK (SEQ ID NO: 5)), 1.5 units pyruvate kinase, 2.1 units lactate dehydrogenase, 1 mM phosphoenol pyruvate, 0.28 mM NADH and 1 mM ATP in assay buffer (100 mM Tris, pH 7.5, 15 mM MgCl2, 0.5 mM DTT, 0.004% (w/v) BSA, and 0.004% Triton X-100). Inhibition of ULK1 was measured by adding serial diluted test compound (final assay concentration of 1% DMSO). A decrease in absorption at 340 nm was monitored continuously for 6 hours at 30° C. on a multi-mode microplate reader (BioTek). The reaction rate was calculated using the 2-3 h time frame. The reaction rate at each concentration of compound was converted to percent inhibition using controls (i.e. reaction with no test compound and reaction with a known inhibitor) and IC50 values were calculated using software routines in Prism (GraphPad software).

LRRK2 kinase = molecular target: T4, LRRK2 kinase (Homo sapiens, UniProt Q5S007); assay: Biochemical assay for LRRK2 (coupled pyruvate kinase/lactate dehydrogenase assay); conditions: 26.4 nM LRRK2 (residues 970-2528), 0.1 mM peptide substrate, 1 mM ATP
T4 construct: purchased Thermo Fisher
T4 sequence (Q5S007 with tags, fused parts or gaps): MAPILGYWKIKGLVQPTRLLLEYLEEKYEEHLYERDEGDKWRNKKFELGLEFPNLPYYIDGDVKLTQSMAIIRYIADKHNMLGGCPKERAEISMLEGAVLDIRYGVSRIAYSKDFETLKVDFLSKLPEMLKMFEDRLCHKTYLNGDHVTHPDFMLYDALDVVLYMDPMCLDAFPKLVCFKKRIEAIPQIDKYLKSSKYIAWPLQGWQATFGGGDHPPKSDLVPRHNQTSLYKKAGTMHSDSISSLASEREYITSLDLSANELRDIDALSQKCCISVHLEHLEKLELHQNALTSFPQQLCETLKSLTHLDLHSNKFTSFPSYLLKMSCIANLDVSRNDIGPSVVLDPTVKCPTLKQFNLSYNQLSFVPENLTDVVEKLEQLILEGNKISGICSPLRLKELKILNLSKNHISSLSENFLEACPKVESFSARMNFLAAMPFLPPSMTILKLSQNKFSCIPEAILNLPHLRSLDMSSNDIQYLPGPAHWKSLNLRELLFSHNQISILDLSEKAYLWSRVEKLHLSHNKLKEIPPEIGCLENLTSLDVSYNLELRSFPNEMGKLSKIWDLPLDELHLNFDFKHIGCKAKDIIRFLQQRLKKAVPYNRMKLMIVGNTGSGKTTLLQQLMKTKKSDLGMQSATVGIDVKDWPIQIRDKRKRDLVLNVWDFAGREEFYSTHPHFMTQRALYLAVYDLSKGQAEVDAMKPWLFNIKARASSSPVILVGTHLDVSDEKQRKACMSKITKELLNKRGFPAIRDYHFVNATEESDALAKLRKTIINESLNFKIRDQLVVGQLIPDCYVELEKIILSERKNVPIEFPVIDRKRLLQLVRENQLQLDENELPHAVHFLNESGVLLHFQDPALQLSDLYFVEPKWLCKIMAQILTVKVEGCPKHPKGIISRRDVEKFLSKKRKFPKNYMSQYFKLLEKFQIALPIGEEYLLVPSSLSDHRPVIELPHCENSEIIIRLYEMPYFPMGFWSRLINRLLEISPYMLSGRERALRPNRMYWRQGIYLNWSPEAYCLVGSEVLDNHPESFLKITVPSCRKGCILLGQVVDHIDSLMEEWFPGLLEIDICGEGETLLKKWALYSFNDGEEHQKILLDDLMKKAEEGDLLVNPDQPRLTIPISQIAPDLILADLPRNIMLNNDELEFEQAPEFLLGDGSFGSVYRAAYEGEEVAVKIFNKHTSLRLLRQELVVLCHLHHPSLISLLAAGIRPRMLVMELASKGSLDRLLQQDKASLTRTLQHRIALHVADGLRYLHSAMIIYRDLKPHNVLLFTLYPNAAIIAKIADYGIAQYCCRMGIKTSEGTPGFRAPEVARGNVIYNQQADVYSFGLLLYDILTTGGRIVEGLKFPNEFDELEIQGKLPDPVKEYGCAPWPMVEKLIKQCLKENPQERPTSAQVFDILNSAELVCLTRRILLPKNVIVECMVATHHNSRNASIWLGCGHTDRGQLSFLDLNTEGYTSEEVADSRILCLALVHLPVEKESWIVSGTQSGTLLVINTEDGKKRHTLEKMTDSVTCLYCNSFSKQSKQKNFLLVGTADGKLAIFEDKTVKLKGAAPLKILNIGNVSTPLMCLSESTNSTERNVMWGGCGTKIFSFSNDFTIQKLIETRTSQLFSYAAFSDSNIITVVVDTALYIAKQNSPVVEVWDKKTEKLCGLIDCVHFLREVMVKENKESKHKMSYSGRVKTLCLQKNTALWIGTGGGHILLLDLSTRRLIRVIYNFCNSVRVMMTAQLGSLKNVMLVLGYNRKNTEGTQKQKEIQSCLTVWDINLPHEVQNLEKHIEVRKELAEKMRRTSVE

Row | SMILES | IC50 (ULK1 kinase [1]) [nM] | IC50 [2] [nM] | IC50 (ULK2 kinase) [nM] | IC50 [3] [nM] | IC50 [4] [nM] | IC50 (ULK1 kinase [5]) [nM] | IC50 (LRRK2 kinase) [nM]
1 | Cc1nn(C2CCNCC2)cc1Nc1ncc(C(F)(F)F)c(NCCCN2CCCCC2=O)n1 [Example 14] | 1 to 25 | 300 to 600 | 1 to 25 | 10 to 100 |  |  | 
2 | Cc1nn(CCCN2CCOCC2)cc1Nc1ncc(C(F)(F)F)c(NCCCN2CCOCCC2=O)n1 [Example 129] | 100 to 500 | > 600 | > 500 |  | > 600 |  | 
3 | Cc1nn(C2CCN(C)C2)cc1Nc1ncc(Br)c(NCCCN2CCCOCC2=O)n1 (centres unmarked) [Example 118] |  | 300 to 600 |  |  | 100 to 300 | 25 to 100 | 1 to 100
4 | CCc1nn(C2CCN(C)CC2)cc1Nc1ncc(C(F)(F)F)c(NCCCN2CCCOCC2=O)n1 [Example 109] | 25 to 100 | 100 to 300 |  | 10 to 100 | 100 to 300 |  | 
5 | Cc1nn([C@@H]2CCNC2)cc1Nc1ncc(Br)c(NCCCN2CCCCC2=O)n1 [Example 60] | 25 to 100 | > 600 | 100 to 500 |  | 10 to 100 |  | 
6 | Cc1nn(CCCN2CCCC2)cc1Nc1ncc(C(F)(F)F)c(NCCCN2CCCCCC2=O)n1 [Example 99] | 1 to 25 | 100 to 300 | 100 to 500 |  | 10 to 100 |  | 
7 | CCc1nn(C2CCN(CC)CC2)cc1Nc1ncc(Br)c(NCCCN2CCCCC2=O)n1 [Example 54] | 25 to 100 | 100 to 300 |  |  | 100 to 300 |  | 

The next lines start with the values.

Row | IC50 (ULK1 kinase [1]) [nM] | IC50 [2] [nM] | IC50 (ULK2 kinase) [nM] | IC50 [3] [nM] | IC50 [4] [nM] | IC50 (ULK1 kinase [5]) [nM] | IC50 (LRRK2 kinase) [nM] | SMILES
8 | 25 to 100 | 100 to 300 | 100 to 500 |  | 100 to 300 |  |  | Cc1nn([C@@H]2CCN(C)C2)cc1Nc1ncc(Br)c(NCCCN2CCCCC2=O)n1 [Example 44]
9 |  | > 600 |  |  | 100 to 300 | 25 to 100 |  | Cc1nn(C2CCN(C(C)C)CC2)cc1Nc1ncc(Br)c(NCCCN2CCCOC2=O)n1 [Example 71]
10 | 25 to 100 | 100 to 300 | 100 to 500 |  | 10 to 100 |  |  | CCN1CCC(n2cc(Nc3cc(NCCCN4CCCCC4=O)c(C(F)(F)F)cn3)cn2)CC1 [Example 16]
11 |  | 10 to 100 |  |  | 10 to 100 | 1 to 25 |  | CN1CCC(n2ccc(Nc3cc(NCCCN4CCCCC4=O)c(C(F)(F)F)cn3)n2)CC1 [Example 173]
12 | 25 to 100 | 100 to 300 | 100 to 500 |  | 100 to 300 |  |  | CCN1CC[C@H](n2cc(Nc3ncc(C(F)(F)F)c(NCCCN4CCCCC4=O)n3)c(C)n2)C1 [Example 66]
13 | 1 to 25 | 10 to 100 | 1 to 25 | 100 to 300 |  |  |  | O=C1CCCCN1CCCNc1nc(Nc2cnn(C3CCNCC3)c2)ncc1C(F)(F)F [Example 7]
14 |  | 300 to 600 |  |  | 100 to 300 | 25 to 100 |  | Cc1nn([C@@H]2CCN(C)C2)cc1Nc1ncc(Br)c(NCCCN2CCOCCC2=O)n1 [Example 138]
15 | 1 to 25 | 300 to 600 |  | 10 to 100 | 10 to 100 |  |  | CCc1nn(C2CCNCC2)cc1Nc1ncc(C(F)(F)F)c(NCCCN2CCCCC2=O)n1 [Example 40]
16 | 25 to 100 | 300 to 600 |  |  | 100 to 300 |  |  | O=C1CCCCCN1CCCNc1nc(Nc2cnn(CCN3CCOCC3)c2)ncc1C(F)(F)F [Example 96]
17 |  | > 600 |  |  | 100 to 300 | 25 to 100 |  | Cc1nn(C2CCN(C(C)C)CC2)cc1Nc1ncc(Cl)c(NCCCN2CCCOC2=O)n1 [Example 72]
